From patent publication US11400104B2, “Skeletal removal of bisphosphonates” (The Regents of the University of California, priority 2016, dated 2022) come the findings set out here.

“Also recorded” adds a separate entry of the source.

Data set [1] is described as follows: hydroxyapatite (HAP) binding affinity, relative retention times normalized to RIS. As to conditions: FIG. 7. The protocol: FIG. 7 is a bar graph showing hydroxyapatite (HAP) binding affinity of Zoledronate (ZOL), ROX-RIS, 5-FAM-ZOL, and AF647-ZOL. Relative retention times were normalized to RIS.
Hydroxyapatite assays indicate that the FL-BPs generally retain substantial affinity for bone mineral that reflect the affinity of the BP component and to a lesser extent, the affinity of the conjugated fluorophore. Hydroxyapatite (Macro-Prep® Ceramic hydroxyapatite Type II […]) was obtained from Bio-Rad Laboratories, Inc. Hercules, Calif. Accurately weighed hydroxyapatite powder (1.4-1.6 mg) was suspended in a 4 mL clear vial containing the appropriate volume of assay buffer (0.05% (wt/vol) Tween20, 10 μM EDTA and 100 mM HEPES pH=7.4) for 3 hours. Hydroxyapatite was then incubated with increasing amounts of FAM-BP and ROX-BP (0, 25, 50, 100, 200, and 300 μM). Samples were gently shaken for 3 hours at 37° C. in appropriate volume of assay buffer (0.05% (wt/vol) Tween20, 10 μM EDTA and 100 mM HEPES pH=7.4). Subsequent to the equilibrium period, the vials were centrifuged at 10,000 rpm for 5 minutes to separate the solids and the supernatant. 0.3 mL of the supernatant was collected and the equilibrium solution concentration is measured by using Shimadzu UV-VIS spectrometer. For the calibration series, FL-BP probe standards were prepared by serial dilution from the stock solution with the same isotherm buffer to give the range from 0 to 400 μM. Calibration curves were constructed using standard solutions of the target FL-BPs. Fluorescent emission can also be used to calculate the binding parameters. Nonspecific binding was measured with a similar procedure in the absence of hydroxyapatite as control. Binding parameters (Kd and Bmax, represent the equilibrium dissociate constant and maximum number of binding sites, respectively) were calculated using the PRISM program (Graphpad, USA). The binding parameters of each compound was measured in 5 independent experiments. […]

A further data set deals with mouse maxilla. As to the kind of experiment: intra-oral injection of AF647-ZOL into maxilla of mice pre-injected IV with FAM-ZOL, fluorescent biophotonics. The data set is classed as in vivo. As to the method: FIG. 10 are representative images of mice maxilla. AF647-ZOL was orally injected into maxilla of mice pre-injected with 5-FAM-ZOL.
The mouse intra-oral injection protocol was established by using a Hamilton syringe with a 33-gauge needle. Under a surgical microscope, 2 μl solution was injected to the palatal gingiva of left first molar of mouse maxilla. After slow injection, the needle was left in the tissue for 3 minutes and then gently removed.
Using this method, 2 μl of 0 μM, 0.5 μM or 5.0 μM AF647-ZOL was injected to mouse maxillary oral mucosa to mice 6 days after retro-orbital IV injection of 100 μl of 50 μM FAM-ZOL. Mouse tissues were harvested 1 day after oral injection and maxillary bones were subjected to standardized fluorescent biophotonics image obtained using an excitation wavelength of 460 nm and a 515 nm filter (LAS3000, FUJIFILM Corp).

A further data set deals with mouse cranial bone. Put plainly: cranial bone displacement: AF647-ZOL pre-adsorbed via IV, FAM-ZOL sub-periosteal injection. The data set is classed as in vivo. As to conditions: IV injection; cryo-cross sections. As to the method: FIG. 12A to FIG. 12C show the displacement and replacement of AF647-ZOL and 5-FAM-ZOL. FIG. 12A are fluorescent images of cranial bone. AF647-ZOL (50 μM) was pre-adsorbed on cranial bone via IV injection. 5-FAM-ZOL at the indicated doses was directly injected to the sub-periosteal space. […] The first bars of each set are for AF647-ZOL and the second bars of each set are for 5-FAM-ZOL. *, P<0.05 vs Veh by Dunnett's test.
Mice were pre-treated by 100 μl of 50 μM AF647-ZOL retro-orbital IV injection. Six days later, mice received sub-periosteal injection to cranial bone with 10 μl of 0 μM, 1 μM, 10 μM, or 50 μM FAM-ZOL. The cranial bone was harvested and soft tissues were removed. The fluorescent signals of AF647 and FAM were measured by standardized fluorescent biophotonics. The cranial bones were then prepared for cryosection. Cross-sections were made by the tape method and evaluated by confocal laser scanning microscopy.

Regarding `CC1(C)C(C=CC=CC=C2N(CCCS(=O)(=O)O)c3ccc(S(=O)(=O)O)cc3C2(C)CCCCCC(=O)NCC(O)C[n+]2ccn(CC(O)(P(=O)(O)O)P(=O)(O)O)c2)=[N+](CCCS(=O)(=O)O)c2ccc(S(=O)(=O)O)cc21` (centres unmarked) [AF647-ZOL], in data set [1], the “influence of the fluorophore on hydroxyapatite affinity” value is recorded as “small reduction”. In the data set on mouse maxilla (2 μl of 0, 0.5 or 5.0 μM intra-oral, harvested 1 day after), the “AF647 signal at and around the injection site on the palatal bone” value is listed as “dose dependent adsorption”. Also, the “displacement of pre-adsorbed FAM-ZOL in maxilla” value in the data set with mouse maxilla (FAM-ZOL 100 μl of 50 μM IV 6 days before AF647-ZOL intra-oral injection, qualitative) was “pre-adsorbed FAM-ZOL was removed; also recorded: Reduction of FAM-ZOL signal was observed qualitatively”. For the same compound, in the data set on mouse maxilla (intra-oral injection), the “systemic distribution to the distant skeletal system (femur)” value was “did not result in systemic distribution to the distant skeletal system”. For the same compound, in the data set on mouse cranial bone, the “location of AF647-ZOL labeling in cranial bone” value is “external and internal bone surfaces, as well as trabecular surface”.
